Reference: the NIST ThermoML archive (doi:10.1016/j.jct.2015.02.011)
Numbers after ± are expanded uncertainties.

Experiment: xn = mol fraction of the nth substance listed
Conditions: 100.7 kPa, Liquid; for speed of sound: Frequency=3 MHz, Sing-around technique in a fixed-path interferometer; for mass density: Vibrating tube method

CCCCCCCC[n+]1ccn(C)c1.F[P-](F)(F)(F)(F)F [1-octyl-3-methylimidazolium hexafluorophosphate] + C1CCOC1
Conditions	mass density [kg/m3]	speed of sound [m/s]
293.15 K, x1 = 0.0767	972.545 ± 1.6	1319.1 ± 2.3
293.15 K, x1 = 0.1791	1048.06 ± 1.6	1338.4 ± 2.3
293.15 K, x1 = 0.2783	1097.51 ± 1.6	1356 ± 2.4
293.15 K, x1 = 0.3996	1139.52 ± 1.7	1371.5 ± 2.4
293.15 K, x1 = 0.5198	1169.49 ± 1.7	1384.1 ± 2.5
293.15 K, x1 = 0.612	1187.49 ± 1.7	1392.2 ± 2.6
293.15 K, x1 = 0.6957	1201.25 ± 1.8	1399 ± 2.7
293.15 K, x1 = 0.7754	1212.53 ± 1.8	1405.2 ± 2.7
293.15 K, x1 = 0.8991	1227.92 ± 1.9	1414 ± 2.8
293.15 K, x1 = 1	1238.77 ± 2	1421.2 ± 2.9
298.15 K, x1 = 0.0767	967.476 ± 1.6	1297.5 ± 2.3
298.15 K, x1 = 0.1791	1043.39 ± 1.6	1320.2 ± 2.3
298.15 K, x1 = 0.2783	1092.94 ± 1.6	1339.2 ± 2.4
298.15 K, x1 = 0.3996	1135.15 ± 1.7	1355.5 ± 2.4
298.15 K, x1 = 0.5198	1165.32 ± 1.7	1368.6 ± 2.5
298.15 K, x1 = 0.612	1183.35 ± 1.7	1376.8 ± 2.6
298.15 K, x1 = 0.6957	1197.12 ± 1.8	1383.9 ± 2.7
298.15 K, x1 = 0.7754	1208.52 ± 1.8	1390.5 ± 2.7
298.15 K, x1 = 0.8991	1223.83 ± 1.9	1399.8 ± 2.8
298.15 K, x1 = 1	1234.79 ± 2	1406.5 ± 2.9
303.15 K, x1 = 0.0767	962.388 ± 1.6	1276.5 ± 2.3
303.15 K, x1 = 0.1791	1038.59 ± 1.6	1302.6 ± 2.3
303.15 K, x1 = 0.2783	1088.35 ± 1.6	1322.5 ± 2.4
303.15 K, x1 = 0.3996	1130.86 ± 1.7	1340.1 ± 2.4
303.15 K, x1 = 0.5198	1161.03 ± 1.7	1353.2 ± 2.5
303.15 K, x1 = 0.612	1179.13 ± 1.7	1361.9 ± 2.6
303.15 K, x1 = 0.6957	1193.04 ± 1.8	1369.2 ± 2.6
303.15 K, x1 = 0.7754	1204.52 ± 1.8	1376.1 ± 2.7
303.15 K, x1 = 0.8991	1219.78 ± 1.9	1385.8 ± 2.8
303.15 K, x1 = 1	1230.84 ± 2	1392.4 ± 2.9
308.15 K, x1 = 0.0767	957.488 ± 1.6	1254.8 ± 2.3
308.15 K, x1 = 0.1791	1033.77 ± 1.6	1283.4 ± 2.3
308.15 K, x1 = 0.2783	1083.82 ± 1.6	1304.2 ± 2.4
308.15 K, x1 = 0.3996	1126.53 ± 1.7	1323.2 ± 2.4
308.15 K, x1 = 0.5198	1157 ± 1.7	1338.3 ± 2.5
308.15 K, x1 = 0.612	1175.28 ± 1.7	1347.8 ± 2.6
308.15 K, x1 = 0.6957	1189.11 ± 1.8	1355.3 ± 2.6
308.15 K, x1 = 0.7754	1200.62 ± 1.8	1362.2 ± 2.7
308.15 K, x1 = 0.8991	1216.13 ± 1.9	1371.3 ± 2.8
308.15 K, x1 = 1	1227.09 ± 2	1379 ± 2.9
313.15 K, x1 = 0.0767	952.422 ± 1.6	1231.1 ± 2.3
313.15 K, x1 = 0.1791	1028.9 ± 1.6	1263.7 ± 2.3
313.15 K, x1 = 0.2783	1079.26 ± 1.6	1286.5 ± 2.4
313.15 K, x1 = 0.3996	1122.17 ± 1.7	1309.5 ± 2.4
313.15 K, x1 = 0.5198	1152.84 ± 1.7	1324.6 ± 2.5
313.15 K, x1 = 0.612	1171.22 ± 1.7	1334 ± 2.6
313.15 K, x1 = 0.6957	1185.14 ± 1.8	1341.6 ± 2.6
313.15 K, x1 = 0.7754	1196.65 ± 1.8	1348.4 ± 2.7
313.15 K, x1 = 0.8991	1212.37 ± 1.9	1357.6 ± 2.8
313.15 K, x1 = 1	1223.3 ± 2	1365.8 ± 2.9
318.15 K, x1 = 0.0767	947.162 ± 1.6	1209 ± 2.3
318.15 K, x1 = 0.1791	1024.04 ± 1.6	1242.4 ± 2.3
318.15 K, x1 = 0.2783	1074.69 ± 1.6	1268.7 ± 2.4
318.15 K, x1 = 0.3996	1117.75 ± 1.7	1292.1 ± 2.4
318.15 K, x1 = 0.5198	1148.57 ± 1.7	1309.3 ± 2.5
318.15 K, x1 = 0.612	1167.05 ± 1.7	1319.7 ± 2.6
318.15 K, x1 = 0.6957	1181.01 ± 1.8	1327 ± 2.6
318.15 K, x1 = 0.7754	1192.68 ± 1.8	1333.4 ± 2.7
318.15 K, x1 = 0.8991	1208.44 ± 1.9	1342.7 ± 2.8
318.15 K, x1 = 1	1219.5 ± 2	1351.2 ± 2.9
323.15 K, x1 = 0.0767	941.999 ± 1.6	1185.7 ± 2.3
323.15 K, x1 = 0.1791	1019.03 ± 1.6	1222.6 ± 2.3
323.15 K, x1 = 0.2783	1069.89 ± 1.6	1250.7 ± 2.4
323.15 K, x1 = 0.3996	1113.1 ± 1.7	1276.2 ± 2.4
323.15 K, x1 = 0.5198	1144.07 ± 1.7	1294.4 ± 2.5
323.15 K, x1 = 0.612	1162.61 ± 1.7	1305.3 ± 2.6
323.15 K, x1 = 0.6957	1176.74 ± 1.8	1313 ± 2.6
323.15 K, x1 = 0.7754	1188.63 ± 1.8	1319.2 ± 2.7
323.15 K, x1 = 0.8991	1204.28 ± 1.9	1329.8 ± 2.8
323.15 K, x1 = 1	1215.42 ± 2	1338 ± 2.9
